In brackets after ≈: the same amount, converted by molar mass.

This note sets out measurements from patent publication US5587473A, “7-acyl-3-(substituted carbamoyloxy) cephem compounds and process for their preparation” (Eisai Co., Ltd., priority 1990, dated 1996).

Data set [1] has as its system Serratia marcescens IID620. Put plainly: MIC against Serratia marcescens IID620. The class given is cell-based. To be noted: Table 1.
The test system of data set [2] is Staphylococcus aureus 209-P. As to the kind of experiment: MIC against Staphylococcus aureus 209-P. It is filed as cell-based. Conditions: Table 1.
The subject of data set [3] is Haemophilus influenzae IID1638. As to the kind of experiment: MIC against Haemophilus influenzae IID1638. It is filed as cell-based. To be noted: Table 1.
Data set [4] concerns Morganella morganii IID601. As to the kind of experiment: MIC against Morganella morganii IID601. To be noted: Table 1. The class given is cell-based.
Data set [5] has as its system Klebsiella pneumoniae IID875. Put plainly: MIC against Klebsiella pneumoniae IID875. The class given is cell-based. Conditions: Table 1.
Another data set concerns Escherichia coli NIHJ. Put plainly: MIC against Escherichia coli NIHJ. Conditions: Table 1. It is filed as cell-based.
The nature of data set [6]: Bioavailability by oral administration in mice (urinary excretion). The class given is in vivo. Conditions: mouse, urine, 20 mg/kg, CMC-Na suspension; for dose excreted at 6 h: collected during 6 hours, read-out: Recovery in urea. As to the method:
Certain representative compounds according to the present invention were each suspended in a CMC-Na solution. The resulting suspension was administered orally to mice at the dosage of 20 mg/kg. Urea excreted during 6 hours after the administration was collected.

Data set [7] relates to Haemophilus influenzae E35147. Put plainly: Treatment of respiratory-infected mice, Haemophilus influenzae E35147. To be noted: mouse, oral, 40 mg/kg, 1 hour after inoculation of 4.3 × 10^5 CFU/mouse; counted 24 hours after infection; limit 1.48, no colony = 1; control 5.73 ± 0.58. The class given is in vivo, mouse infected with Haemophilus influenzae. As to the method: (§1) A bacterium-containing solution was inoculated into the nasal cavity of each mouse, followed by the oral administration of a suspension of one of the compounds in a CMC-Na solution one hour later where the bacterium was Haemophilus influenzae but four hours later where the bacterium was Klebsiella pneumoniae. The number of intrapulmonary viable cells of the bacterium was counted upon an elapsed time of 24 hours after the infection. The measurement limit is represented by the following formula. Log CFU/Lung=1.48 wherein CFU is the colony forming unit. When no colony was observed, the bacterium was regarded as having been eradicated and Log CFU/Lung was calculated to be 1.

The subject of data set [8] is Haemophilus influenzae E35147. As to the kind of experiment: MIC against Haemophilus influenzae E35147. The class given is cell-based. To be noted: Table 4.
Data set [9] concerns Klebsiella pneumonia E02033. As to the kind of experiment: Treatment of respiratory-infected mice, Klebsiella pneumonia E02033. Conditions: mouse, oral, 10 mg/kg; for Intrapulmonary viable cells: 4 hours after inoculation of 1.4 × 10^3 CFU/mouse, counted 24 hours after infection, limit 1.48, no colony = 1, control 7.31 ± 0.73; for Eradication rate: inoculum 1.4 × 10^3 CFU/mouse, 24 hours after infection, control 0. The class given is in vivo, mouse infected with Klebsiella pneumonia. As to the method:
as §1

For data set [10], the system named is Klebsiella pneumonia E02033. As to the kind of experiment: MIC against Klebsiella pneumonia E02033. It is filed as cell-based. To be noted: Klebsiella pneumoniae, Table 3.

On to “1-(Isopropoxycarbonyloxy)ethyl 7β-[2-(2-aminothiazol-4-yl)-2-(Z)-acetoxyiminoacetamido]-3-N,N-dimethylcarbamoyloxymethyl-3-cephem-carboxylate hydrochloride [Example 40]”, for which the MIC in data set [1] amounted to 0.1 µg/mL; in data set [2], 0.2 µg/mL; in data set [3] it was 0.2 µg/mL; in [4] it was 0.05 µg/mL; in [5] it was 0.05 µg/mL; in the data set on Escherichia coli NIHJ, 0.05 µg/mL.

For “1-(Isopropoxycarbonyloxy)ethyl 7β-[2-(2-aminothiazol-4-yl)-2-(Z)-hydroxyiminoacetamido]-3-N,N-dimethylcarbamoyloxymethyl-3-cephem-carboxylate hydrochloride [Example 41]”, the MIC in data set [1] was 0.1 µg/mL; in data set [2], 0.2 µg/mL; in data set [3], 0.2 µg/mL; in data set [4], 0.1 µg/mL; in data set [5], 0.2 µg/mL; against Escherichia coli NIHJ, 0.2 µg/mL.

On to “7-Amino-3-N,N-dimethylcarbamoyloxymethyl-3-cephem-4-carboxylic acid [Example 39]”, for which the MIC in data set [1] was found to be 0.05 µg/mL; in [2], 0.2 µg/mL; in [3], 0.2 µg/mL; in [4], 0.05 µg/mL; in [5] it was 0.025 µg/mL; against Escherichia coli NIHJ it was 0.05 µg/mL.

`CC(C)(C)C(=O)OCOC(=O)C1=C(COC(N)=O)CS[C@@H]2C(NC(=O)/C(=N\O)c3csc(N)n3)C(=O)N12` (some centres unmarked) [Compound B, Pivaloyloxymethyl 7-[(Z)-2-(2-aminothiazol-4-yl)-2-hydroxyiminoacetamido]-3-carbamoyloxymethyl-3-cephem-4-carboxylate, reference compound]: in data set [6], the bioavailability at 6 h was found to be 17% and the dose excreted at 6 h amounted to 11%.

In turn, `CC(C)OC(=O)OC(C)OC(=O)C1=C(COC(N)=O)CS[C@@H]2C(NC(=O)/C(=N\O)c3csc(N)n3)C(=O)N12` (some centres unmarked) [Compound C, 1-(Isopropyloxycarbonyloxy)ethyl 7-[(Z)-2-(2-aminothiazol-4-yl)-2-hydroxyiminoacetamido]-3-carbamoyloxymethyl-3-cephem-4-carboxylate, reference compound] registered an Intrapulmonary viable cells in data set [7] of 5.50 ± 0.61 Log CFU/Lung. Also, the MIC in data set [8] came to 0.8 µg/mL (≈ 1.4 µM). For the same molecule, in data set [6], the bioavailability at 6 h stood at 7% and the dose excreted at 6 h was 4.5%.

On to `CO/N=C(\C(=O)NC1C(=O)N2C(C(=O)OCOC(=O)C(C)(C)C)=C(COC(N)=O)CS[C@H]12)c1csc(N)n1` (some centres unmarked) [Compound D, Pivaloyloxymethyl 7-[(Z)-2-(2-aminothiazol-4-yl)-2-methoxyiminoacetamido]-3-carbamoyloxymethyl-3-cephem-4-carboxylate, reference compound], for which, in data set [6], the bioavailability at 6 h turned out to be 17% and the dose excreted at 6 h turned out to be 10.4%.

For the molecule `COCC1=C(C(=O)OC(C)OC(=O)OC(C)C)N2C(=O)C(NC(=O)/C(=N\OC)c3csc(N)n3)[C@H]2SC1` (some centres unmarked) [Compound E, 1-(Isopropyloxycarbonyloxy)ethyl 7-[(Z)-2-(2-aminothiazol-4-yl)-2-methoxyiminoacetamido]-3-methoxymethyl-3-cephem-4-carboxylate], in data set [9], the Intrapulmonary viable cells is on record as 4.26 ± 0.62 log CFU/lung and the Eradication rate is 0%. The same molecule had an MIC in data set [10] of 0.2 µg/mL (≈ 0.359 µM).

For `C=CC1=C(C(=O)O)N2C(=O)C(NC(=O)/C(=N\O)c3csc(N)n3)[C@H]2SC1` (some centres unmarked) [Compound F, 7-[(Z)-2-(2-aminothiazol-4-yl)-2-hydroxyiminoacetamido]-3-vinyl-3-cephem-4-carboxylic acid], the Intrapulmonary viable cells is 5.16 ± 0.73 Log CFU/Lung in [7] and 6.25 ± 0.74 log CFU/lung in data set [9]. In addition, the Eradication rate in data set [9] was 0%. Also, the MIC in data set [10] came out at 0.2 µg/mL (≈ 0.506 µM); in [8], 0.8 µg/mL (≈ 2.02 µM).

On to `CN(C)C(=O)OCC1=C(C(=O)OCOC(=O)C(C)(C)C)N2C(=O)C(NC(=O)/C(=N\O)c3csc(N)n3)C2SC1` (centres unmarked) [Example 14, Pivaloyloxymethyl 7-[(Z)-2-(2-aminothiazol-4-yl)-2-hydroxyiminoacetamido]-3-N,N-dimethylcarbamoyloxymethyl-3-cephem-4-carboxylate], for which, in [6], the bioavailability at 6 h was 38% and the dose excreted at 6 h was 18.2%.

As for `CC(C)OC(=O)OC(C)OC(=O)C1=C(COC(=O)N(C)C)CSC2C(NC(=O)/C(=N\O)c3csc(N)n3)C(=O)N12` (centres unmarked) [Example 20, 1-(Isopropyloxycarbonyloxy)ethyl 7-[(Z)-2-(2-aminothiazol-4-yl)-2-hydroxyiminoacetamido]-3-N,N-dimethylcarbamoyloxymethyl-3-cephem-4-carboxylate], the Intrapulmonary viable cells in data set [7] stood at 3.51 ± 0.37 Log CFU/Lung; in data set [9], 1.66 ± 1.02 log CFU/lung. In addition, the Eradication rate in data set [9] turned out to be 50%. The MIC in [10] and in [8] was 0.1 µg/mL (≈ 0.166 µM) throughout. In data set [6], this molecule returned a bioavailability at 6 h of 46%. In data set [6], the dose excreted at 6 h came to 22%.

As to `CO/N=C(\C(=O)NC1C(=O)N2C(C(=O)OCOC(=O)C(C)(C)C)=C(COC(=O)N(C)C)CSC12)c1csc(N)n1` (centres unmarked) [Example 24, Pivaloyloxymethyl 7-[(Z)-2-(2-aminothiazol-4-yl)-2-methoxyiminoacetamido]-3-N,N-dimethylcarbamoyloxymethyl-3-cephem-4-carboxylate], in data set [6], the bioavailability at 6 h is 34% and the dose excreted at 6 h worked out at 20%.

With `CC(=O)O/N=C(\C(=O)NC1C(=O)N2C(C(=O)OC(C)OC(=O)OC(C)C)=C(COC(=O)N(C)C)CSC12)c1csc(N)n1` (stereo not drawn) [Example 43, 1-(Isopropoxycarbonyloxy)ethyl 7β-[2-(2-aminothiazol-4-yl)-2-(Z)-acetoxyiminoacetamido]-3-N,N-dimethylcarbamoyloxymethyl-3-cephem-carboxylate], in data set [7], the Intrapulmonary viable cells was 4.86 ± 0.60 Log CFU/Lung. The molecule also returned an MIC in [8] of 0.2 µg/mL (≈ 0.311 µM).

In the case of “Benzhydryl 7-formamido-3-N,N-dimethylcarbamoyloxymethyl-3-cephem-4-carboxylate [Example 38]”, the MIC in data set [1] worked out at 0.05 µg/mL; in data set [2], 0.1 µg/mL; in [3], 0.2 µg/mL; in data set [4] it was 0.05 µg/mL; in [5], 0.025 µg/mL; against Escherichia coli NIHJ, 0.025 µg/mL.
